Results as given in ChEMBL document CHEMBL1201862, “PubChem BioAssay data set” (2004).
Active and inactive are the calls of the source.

How the values were obtained:
[1] = biological target: T1, Aminopeptidase N (Plasmodium falciparum FcB1/Columbia, UniProt O96935); assay: P. falciparum M1AAP inhibitors, biochemical, fluorogenic H-Leu-NHMec substrate, 1536-well (AID 1445); set-up: species or system Plasmodium falciparum 3D7, 3D7
T1 sequence (O96935 whole entry): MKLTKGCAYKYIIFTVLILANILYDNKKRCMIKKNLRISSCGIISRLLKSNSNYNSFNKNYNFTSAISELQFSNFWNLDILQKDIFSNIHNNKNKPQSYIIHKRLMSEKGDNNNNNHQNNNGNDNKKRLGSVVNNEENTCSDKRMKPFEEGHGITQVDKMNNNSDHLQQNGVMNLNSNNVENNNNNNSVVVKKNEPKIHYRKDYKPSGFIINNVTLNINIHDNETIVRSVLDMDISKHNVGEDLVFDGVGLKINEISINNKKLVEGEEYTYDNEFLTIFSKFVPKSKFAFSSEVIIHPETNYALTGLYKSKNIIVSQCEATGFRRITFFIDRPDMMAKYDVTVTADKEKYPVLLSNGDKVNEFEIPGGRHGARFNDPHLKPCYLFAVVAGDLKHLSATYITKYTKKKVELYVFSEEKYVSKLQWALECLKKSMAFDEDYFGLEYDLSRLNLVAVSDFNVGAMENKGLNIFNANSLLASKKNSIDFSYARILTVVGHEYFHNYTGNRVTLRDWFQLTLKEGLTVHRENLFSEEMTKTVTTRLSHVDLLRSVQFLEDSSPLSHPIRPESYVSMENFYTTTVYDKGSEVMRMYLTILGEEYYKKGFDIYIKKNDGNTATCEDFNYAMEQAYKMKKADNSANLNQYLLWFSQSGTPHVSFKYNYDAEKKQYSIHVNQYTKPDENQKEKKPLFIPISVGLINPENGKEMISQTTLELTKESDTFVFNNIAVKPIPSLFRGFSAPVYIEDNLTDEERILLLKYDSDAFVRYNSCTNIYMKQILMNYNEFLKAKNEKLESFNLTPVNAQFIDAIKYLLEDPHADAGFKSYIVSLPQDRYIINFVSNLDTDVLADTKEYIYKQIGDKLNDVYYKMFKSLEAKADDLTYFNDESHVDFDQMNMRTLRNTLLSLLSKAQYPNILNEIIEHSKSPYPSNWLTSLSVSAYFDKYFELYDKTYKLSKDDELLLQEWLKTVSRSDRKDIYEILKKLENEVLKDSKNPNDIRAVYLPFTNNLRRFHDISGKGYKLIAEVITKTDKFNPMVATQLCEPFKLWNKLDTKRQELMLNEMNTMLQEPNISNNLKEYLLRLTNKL

[2] = biological target: T2, Bcl-2-related protein A1 (Mus musculus, UniProt Q07440); format: functional;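 note: confirmatory dose–response counterscreen on Bfl-1, used to check hits from a UBC13 polyubiquitin inhibitor campaign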
T2 sequence (Q07440 whole entry): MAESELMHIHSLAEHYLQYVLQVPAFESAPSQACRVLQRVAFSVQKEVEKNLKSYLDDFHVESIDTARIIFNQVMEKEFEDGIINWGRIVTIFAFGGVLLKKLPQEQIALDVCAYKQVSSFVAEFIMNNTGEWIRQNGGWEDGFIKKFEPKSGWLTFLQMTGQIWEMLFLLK

[3] = biological target: T3, Ubiquitin-conjugating enzyme E2 N (Homo sapiens, UniProt P61088); format: functional
T3 sequence (P61088 whole entry): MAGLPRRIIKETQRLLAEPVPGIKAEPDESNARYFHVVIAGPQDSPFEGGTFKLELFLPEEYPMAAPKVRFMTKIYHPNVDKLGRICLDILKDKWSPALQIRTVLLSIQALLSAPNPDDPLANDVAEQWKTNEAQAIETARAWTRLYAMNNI

[4] = biological target: T3, Ubiquitin-conjugating enzyme E2 N; format: functional; remark: listed apart in the source
[5] = biological target: T4, Alkaline phosphatase, tissue-nonspecific isozyme (Homo sapiens, UniProt P05186); assay: human TNAP enzyme inhibitors, SAR follow-up, biochemical, luminescent, dose response (AID 1056)
T4 sequence (P05186 whole entry): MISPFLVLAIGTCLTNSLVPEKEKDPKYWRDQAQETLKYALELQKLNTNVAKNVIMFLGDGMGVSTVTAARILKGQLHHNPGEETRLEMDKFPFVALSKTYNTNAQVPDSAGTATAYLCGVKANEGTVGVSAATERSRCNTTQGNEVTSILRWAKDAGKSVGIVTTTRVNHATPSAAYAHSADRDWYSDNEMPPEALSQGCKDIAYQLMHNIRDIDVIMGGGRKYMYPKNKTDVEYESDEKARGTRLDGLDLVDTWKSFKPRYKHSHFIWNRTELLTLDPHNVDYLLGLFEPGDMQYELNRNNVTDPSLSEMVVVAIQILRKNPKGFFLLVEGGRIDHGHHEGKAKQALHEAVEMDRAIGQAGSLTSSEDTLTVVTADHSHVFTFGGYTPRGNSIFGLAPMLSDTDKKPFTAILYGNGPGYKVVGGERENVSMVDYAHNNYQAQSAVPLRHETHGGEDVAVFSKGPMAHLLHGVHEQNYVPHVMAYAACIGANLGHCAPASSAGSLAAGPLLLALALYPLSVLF

[6] = biological target: Glyceraldehyde-3-phosphate dehydrogenase (Homo sapiens, UniProt P04406)
Glyceraldehyde-3-phosphate dehydrogenase, sequence (P04406 whole entry): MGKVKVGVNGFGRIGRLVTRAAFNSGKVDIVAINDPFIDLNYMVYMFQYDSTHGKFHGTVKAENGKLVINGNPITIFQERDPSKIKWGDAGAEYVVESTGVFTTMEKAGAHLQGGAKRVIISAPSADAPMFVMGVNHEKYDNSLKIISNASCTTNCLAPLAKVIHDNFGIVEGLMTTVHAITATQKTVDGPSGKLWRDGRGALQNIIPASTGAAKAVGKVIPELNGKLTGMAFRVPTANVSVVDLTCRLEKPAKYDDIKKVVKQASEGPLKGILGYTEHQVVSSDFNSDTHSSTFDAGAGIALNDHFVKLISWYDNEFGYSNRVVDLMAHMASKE

[7] = biological target: Beta-galactosidase (Escherichia coli, UniProt Q8VNN2); assay: beta-galactosidase enzyme inhibitors and activators, dose response, artefact control for CCR6 antagonist project, biochemical, E. coli enzyme, set 3 (AID 504712); format: functional
Beta-galactosidase, sequence (Q8VNN2 whole entry): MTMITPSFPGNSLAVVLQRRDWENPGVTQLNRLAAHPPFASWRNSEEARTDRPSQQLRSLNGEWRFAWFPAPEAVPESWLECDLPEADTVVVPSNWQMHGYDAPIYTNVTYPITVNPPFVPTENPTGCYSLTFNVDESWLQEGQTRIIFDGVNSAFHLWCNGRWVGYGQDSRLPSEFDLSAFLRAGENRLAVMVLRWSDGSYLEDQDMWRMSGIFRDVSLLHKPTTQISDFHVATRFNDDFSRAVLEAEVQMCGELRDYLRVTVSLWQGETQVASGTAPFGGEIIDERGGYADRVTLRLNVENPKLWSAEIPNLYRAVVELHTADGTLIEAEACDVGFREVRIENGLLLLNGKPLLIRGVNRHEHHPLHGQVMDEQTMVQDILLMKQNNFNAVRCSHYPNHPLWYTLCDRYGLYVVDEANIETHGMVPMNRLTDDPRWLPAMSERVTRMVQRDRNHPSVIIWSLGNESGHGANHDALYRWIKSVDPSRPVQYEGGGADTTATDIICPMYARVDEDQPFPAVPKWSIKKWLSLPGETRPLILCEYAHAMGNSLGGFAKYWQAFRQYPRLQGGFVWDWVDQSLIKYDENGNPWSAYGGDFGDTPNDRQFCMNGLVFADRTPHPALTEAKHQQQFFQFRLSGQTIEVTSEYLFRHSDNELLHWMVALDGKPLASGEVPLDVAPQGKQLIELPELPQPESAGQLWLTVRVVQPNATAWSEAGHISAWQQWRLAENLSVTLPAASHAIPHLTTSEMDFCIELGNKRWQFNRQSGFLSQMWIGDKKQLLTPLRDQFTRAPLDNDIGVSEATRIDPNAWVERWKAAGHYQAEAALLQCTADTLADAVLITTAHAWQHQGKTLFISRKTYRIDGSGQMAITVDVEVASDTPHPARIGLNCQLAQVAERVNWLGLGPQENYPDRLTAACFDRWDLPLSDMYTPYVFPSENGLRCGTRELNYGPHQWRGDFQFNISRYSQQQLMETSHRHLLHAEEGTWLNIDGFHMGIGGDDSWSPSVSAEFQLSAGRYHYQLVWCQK

[8] = biological target: G-protein coupled receptor 55 (Homo sapiens, UniProt Q9Y2T6); assay: GPR55 antagonists blocking LPI-driven arrestin recruitment, primary screen, imaging, U2OS, beta-arrestin-GFP, LPI agonist (AID 2013); format: functional;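 note: antagonist potency measured as reduced agonist-driven arrestin aggregation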
G-protein coupled receptor 55, sequence (Q9Y2T6 whole entry): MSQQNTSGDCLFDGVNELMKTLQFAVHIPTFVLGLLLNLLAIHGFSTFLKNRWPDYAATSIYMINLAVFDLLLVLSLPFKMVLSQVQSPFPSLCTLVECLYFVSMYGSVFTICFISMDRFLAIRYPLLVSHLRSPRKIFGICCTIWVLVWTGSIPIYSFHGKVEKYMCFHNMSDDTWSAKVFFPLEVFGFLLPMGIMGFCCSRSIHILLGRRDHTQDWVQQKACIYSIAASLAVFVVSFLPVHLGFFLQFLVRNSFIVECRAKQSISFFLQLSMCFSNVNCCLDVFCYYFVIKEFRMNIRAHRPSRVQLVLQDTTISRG

[9] = inhibitors of SNCA 5'UTR-driven reporter translation, confirmation, H4 neuroglioma cells, luminescence (AID 1988); format: functional, cell-based
[10] = test system: HT-1080; assay: cytotoxicity in HT1080 fibrosarcoma cells, cell-based, fluorescence readout (AID 620); format: functional; conditions: Homo sapiens
[11] = Luminescence Cell-Based Dose Response HTS to Identify Inhibitors of 5'UTR Stem-Loop Driven Prion Protein mRNA Translation in H4 Neuroglioblastoma Cells. [Related pubchem assays: 1827 (Project Summary), 1813 (Primary HTS)]; format: functional
[12] = biological target: Luciferin 4-monooxygenase (Photinus pyralis, UniProt P08659); assay: Counter Screen for Luciferase-based Assay Positives. [Related pubchem assays: 620, 618, 411 ]
Luciferin 4-monooxygenase, sequence (P08659 whole entry): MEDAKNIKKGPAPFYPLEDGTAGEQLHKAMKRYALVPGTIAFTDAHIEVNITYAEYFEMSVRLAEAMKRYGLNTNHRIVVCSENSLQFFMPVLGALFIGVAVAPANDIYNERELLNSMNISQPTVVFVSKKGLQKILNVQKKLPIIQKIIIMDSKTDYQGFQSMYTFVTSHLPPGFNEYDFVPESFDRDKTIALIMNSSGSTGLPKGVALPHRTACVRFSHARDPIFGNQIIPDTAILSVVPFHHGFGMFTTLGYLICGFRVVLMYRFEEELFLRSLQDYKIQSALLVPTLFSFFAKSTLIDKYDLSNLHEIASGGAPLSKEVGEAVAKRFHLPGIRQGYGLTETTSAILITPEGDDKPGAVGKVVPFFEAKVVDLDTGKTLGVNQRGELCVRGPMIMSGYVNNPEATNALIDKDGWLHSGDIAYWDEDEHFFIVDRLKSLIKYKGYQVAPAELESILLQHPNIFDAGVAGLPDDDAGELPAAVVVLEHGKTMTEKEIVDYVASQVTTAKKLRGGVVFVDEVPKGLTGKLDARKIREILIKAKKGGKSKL

[13] = biological target: Genome polyprotein (dengue virus type 2, UniProt P29990); assay: Dengue-2 NS5 methyltransferase inhibitors, primary screen, biochemical, confirmation dose response (AID 588689); format: functional
Genome polyprotein, sequence (P29990 2492-3391 limits assumed): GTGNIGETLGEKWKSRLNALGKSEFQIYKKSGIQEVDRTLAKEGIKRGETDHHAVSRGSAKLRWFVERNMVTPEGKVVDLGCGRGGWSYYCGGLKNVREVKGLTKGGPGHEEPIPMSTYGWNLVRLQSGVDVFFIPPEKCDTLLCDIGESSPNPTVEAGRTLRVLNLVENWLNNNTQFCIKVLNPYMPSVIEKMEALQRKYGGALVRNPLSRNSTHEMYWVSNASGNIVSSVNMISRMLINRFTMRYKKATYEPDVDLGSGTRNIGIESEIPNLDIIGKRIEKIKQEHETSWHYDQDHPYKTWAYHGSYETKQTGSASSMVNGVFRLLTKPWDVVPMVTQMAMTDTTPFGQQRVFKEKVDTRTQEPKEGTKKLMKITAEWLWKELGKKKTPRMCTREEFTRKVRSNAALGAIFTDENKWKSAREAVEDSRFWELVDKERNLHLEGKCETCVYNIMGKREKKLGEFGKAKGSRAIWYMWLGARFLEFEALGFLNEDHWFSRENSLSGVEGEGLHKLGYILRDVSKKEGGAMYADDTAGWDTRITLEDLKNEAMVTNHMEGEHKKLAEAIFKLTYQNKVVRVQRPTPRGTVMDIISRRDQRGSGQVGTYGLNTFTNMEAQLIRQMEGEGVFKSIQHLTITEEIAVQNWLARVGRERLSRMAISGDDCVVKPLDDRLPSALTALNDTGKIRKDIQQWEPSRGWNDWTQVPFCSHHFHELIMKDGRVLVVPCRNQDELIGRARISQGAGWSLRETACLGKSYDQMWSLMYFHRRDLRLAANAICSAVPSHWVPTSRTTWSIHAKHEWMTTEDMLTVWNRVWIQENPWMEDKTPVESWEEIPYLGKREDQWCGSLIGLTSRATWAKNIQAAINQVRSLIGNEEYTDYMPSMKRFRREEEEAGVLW

[14] = inhibitors of intracellular T. cruzi replication, confirmation, NIH3T3 host cells, beta-gal luminescence (AID 2044); format: functional, cell-based;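 note: intracellular parasites grown in NIH/3T3 mouse fibroblasts as host cells; luminescent beta-galactosidase reporter signal from transgenic T. cruzi replicating inside host cells; inhibitors lower the luminescence signal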
[15] = cytotoxicity toward NIH3T3 fibroblasts, dose response, counter-screen, cell-based, ATP luminescence, mouse fibroblasts (AID 2010); format: functional;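 note: cells exposed to compound for about 90 hours before reading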
[16] = biological target: T5, DNA dC->dU-editing enzyme APOBEC-3G (Homo sapiens, UniProt Q9HC16); assay: Dose Response confirmation of small molecule APOBEC3G DNA Deaminase Inhibitors via a fluorescence-based single-stranded DNA deaminase assay. [Related pubchem assays (depositor defined):AID493012, AID493028]; format: functional
T5 sequence (Q9HC16 whole entry): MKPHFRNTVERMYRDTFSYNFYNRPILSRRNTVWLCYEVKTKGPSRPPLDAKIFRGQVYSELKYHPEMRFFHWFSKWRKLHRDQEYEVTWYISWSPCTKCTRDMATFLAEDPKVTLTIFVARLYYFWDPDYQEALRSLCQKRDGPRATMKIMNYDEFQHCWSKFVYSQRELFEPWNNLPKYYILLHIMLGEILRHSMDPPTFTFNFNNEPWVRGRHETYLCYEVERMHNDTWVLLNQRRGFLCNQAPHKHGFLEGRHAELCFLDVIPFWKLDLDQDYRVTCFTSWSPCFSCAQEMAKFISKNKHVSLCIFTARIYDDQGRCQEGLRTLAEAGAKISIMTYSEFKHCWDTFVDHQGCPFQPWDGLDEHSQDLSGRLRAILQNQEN

[17] = biological target: T6, DNA dC->dU-editing enzyme APOBEC-3A (Homo sapiens, UniProt P31941); assay: APOBEC3A DNA deaminase inhibitors, dose response, biochemical (AID 504722); format: functional
T6 sequence (P31941 whole entry): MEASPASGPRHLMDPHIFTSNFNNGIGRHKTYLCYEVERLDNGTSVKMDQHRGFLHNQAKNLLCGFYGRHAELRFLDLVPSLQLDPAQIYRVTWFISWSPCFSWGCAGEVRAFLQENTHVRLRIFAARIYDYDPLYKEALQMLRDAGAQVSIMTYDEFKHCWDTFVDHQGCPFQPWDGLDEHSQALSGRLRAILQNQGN

[18] = biological target: T5, DNA dC->dU-editing enzyme APOBEC-3G; format: functional
[19] = biological target: T6, DNA dC->dU-editing enzyme APOBEC-3A; assay: Dose Response confirmation of small molecule APOBEC3A DNA Deaminase Inhibitors via a fluorescence-based single-stranded DNA deaminase assay. [Related pubchem assays (depositor defined):AID493011, AID493024]; format: functional
[20] = THP-1 cell cytotoxicity, dose response, cytotoxicity control for non-replicating M. tuberculosis project (AID 489025); format: functional
[21] = biological target: T7, Protein skinhead-1 (Caenorhabditis elegans, UniProt P34707); format: functional
T7 sequence (P34707 whole entry): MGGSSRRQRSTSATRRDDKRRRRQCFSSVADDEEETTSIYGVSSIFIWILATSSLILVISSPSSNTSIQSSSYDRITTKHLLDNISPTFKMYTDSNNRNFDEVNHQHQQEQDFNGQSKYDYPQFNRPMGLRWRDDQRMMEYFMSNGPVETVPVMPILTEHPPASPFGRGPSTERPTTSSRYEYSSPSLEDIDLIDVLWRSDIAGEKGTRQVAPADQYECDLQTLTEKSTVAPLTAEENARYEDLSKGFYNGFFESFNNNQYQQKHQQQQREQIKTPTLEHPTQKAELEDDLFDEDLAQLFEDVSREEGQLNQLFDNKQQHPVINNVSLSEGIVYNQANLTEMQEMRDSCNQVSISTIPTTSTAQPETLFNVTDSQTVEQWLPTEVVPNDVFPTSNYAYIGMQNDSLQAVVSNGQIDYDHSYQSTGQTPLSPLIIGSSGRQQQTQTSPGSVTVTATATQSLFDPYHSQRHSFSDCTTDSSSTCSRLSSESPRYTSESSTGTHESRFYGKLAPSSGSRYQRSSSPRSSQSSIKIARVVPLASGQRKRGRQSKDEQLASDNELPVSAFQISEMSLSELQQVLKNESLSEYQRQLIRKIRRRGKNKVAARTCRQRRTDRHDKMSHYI

[22] = biological target: T8, Heat shock factor protein 1 (Mus musculus, UniProt P38532); assay: HSF1 potentiators in luciferase reporter cells, confirmation, cell-based, NIH3T3, luminescence, dose retest (AID 435004); format: functional;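 note: stress induced by proteasome inhibitor MG132 added 30 min after compound; luciferase reporter driven by HSF1 response element in NIH3T3 cells; actives raise luminescence as potentiators of the MG132 stress response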
T8 sequence (P38532 whole entry): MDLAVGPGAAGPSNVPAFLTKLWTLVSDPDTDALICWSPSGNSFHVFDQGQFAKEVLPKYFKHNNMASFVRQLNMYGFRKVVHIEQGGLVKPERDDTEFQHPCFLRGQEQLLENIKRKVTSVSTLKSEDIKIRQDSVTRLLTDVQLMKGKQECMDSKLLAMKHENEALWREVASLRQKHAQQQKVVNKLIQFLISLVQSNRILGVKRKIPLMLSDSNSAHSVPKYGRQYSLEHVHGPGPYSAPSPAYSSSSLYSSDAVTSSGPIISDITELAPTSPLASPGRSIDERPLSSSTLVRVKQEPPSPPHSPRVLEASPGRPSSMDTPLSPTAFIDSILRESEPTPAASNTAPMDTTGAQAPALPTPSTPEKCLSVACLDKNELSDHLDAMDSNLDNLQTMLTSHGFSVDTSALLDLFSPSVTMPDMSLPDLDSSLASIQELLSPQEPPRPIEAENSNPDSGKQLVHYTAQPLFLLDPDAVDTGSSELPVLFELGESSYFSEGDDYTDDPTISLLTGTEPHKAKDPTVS

[23] = biological target: Large T antigen (Simian virus 40, UniProt P03070); format: functional, Betapolyomavirus macacae;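 note: Confirmatory-stage PubChem screen for compounds that inhibit SV40 T antigen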
Large T antigen, sequence (P03070 whole entry): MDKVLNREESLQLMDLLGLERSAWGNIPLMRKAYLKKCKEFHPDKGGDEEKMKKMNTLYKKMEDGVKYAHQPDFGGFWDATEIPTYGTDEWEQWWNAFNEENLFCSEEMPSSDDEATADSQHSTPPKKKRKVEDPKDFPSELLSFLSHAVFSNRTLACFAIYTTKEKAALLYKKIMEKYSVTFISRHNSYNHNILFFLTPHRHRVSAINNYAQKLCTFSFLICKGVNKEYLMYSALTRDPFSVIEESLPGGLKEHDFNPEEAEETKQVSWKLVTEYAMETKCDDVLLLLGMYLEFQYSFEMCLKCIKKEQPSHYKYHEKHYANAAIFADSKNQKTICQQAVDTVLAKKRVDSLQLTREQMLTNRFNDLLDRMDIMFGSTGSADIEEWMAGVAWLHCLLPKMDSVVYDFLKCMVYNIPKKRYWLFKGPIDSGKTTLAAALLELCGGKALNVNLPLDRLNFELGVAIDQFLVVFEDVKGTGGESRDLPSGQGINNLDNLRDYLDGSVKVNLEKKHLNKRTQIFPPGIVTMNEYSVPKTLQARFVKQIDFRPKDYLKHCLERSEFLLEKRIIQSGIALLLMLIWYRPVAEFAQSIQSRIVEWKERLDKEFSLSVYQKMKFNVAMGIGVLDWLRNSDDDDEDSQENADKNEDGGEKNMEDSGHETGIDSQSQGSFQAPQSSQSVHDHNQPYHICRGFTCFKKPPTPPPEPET

Compound: COc1ccc(-c2nnc(SCC(=O)Nc3cc(S(=O)(=O)N4CCCCC4)ccc3Cl)n2N)cc1
- IC50 [1]: 39.3 µM (active)

Compound: CC(=O)c1ccc(OCC(O)CN2CCN(CCN3C(=O)c4cccc5cccc(c45)C3=O)CC2)cc1 (stereo not given)
- IC50 [2]: > 20 µM (inactive)
- IC50 [3]: 4.79 µM (active)
- IC50 [4]: 4.17 µM (active)

Compound: CC(=O)Nc1nc(SCCCc2ccccc2)n[nH]1
- IC50 [5]: 6 µM (active)
- IC50 [6]: > 100 µM (not active)

Compound: O=C(Nc1ccccc1Cl)c1ccccc1Oc1ccc(C(F)(F)F)cc1[N+](=O)[O-]
- IC50 [7]: > 66.6 µM (inactive)
- IC50 [8]: 3.31 µM (active)

Compound: O=C(CCCOc1ccccc1)N1CCCCC1
- EC50 [9]: 8.68 µM (active)
- EC50 [10]: > 50 µM (not active)
- EC50 [11]: 8.9 µM (active)
- EC50 [12]: < 0.2 µM (active)

Compound: O=C(COc1ccccc1/C=C\c1nc(O)nc(O)c1[N+](=O)[O-])Nc1ccccc1
- IC50 [1]: 42.9 µM (active)
- IC50 [13]: 39.9 µM (active)
- EC50 [14]: > 60 µM (not active)
- EC50 [15]: > 60 µM (not active)

Compound: O=C1OC(c2ccc(O)cc2)(c2ccc(O)cc2)c2ccccc21 [PHENOLPHTHALEIN]
- IC50 [8]: 6.67 µM (active)

Compound: CN1CCN(C(=O)CCN2C(=O)/C(=C/c3ccccc3Cl)SC2=S)CC1
- IC50 [2]: > 20 µM (inactive)
- IC50 [3]: 17.8 µM (active)
- IC50 [4]: > 20 µM (inactive)

Compound: COc1cc(C2Nn3c(nnc3-c3ccccc3OC)S2)ccc1O (stereo not given)
- IC50 [16]: 3.57 µM (active)
- IC50 [17]: > 100 µM (inactive)

Compound: O=[N+]([O-])c1ccc(/C=N/n2c(S)nnc2-c2cccnc2)cc1
- IC50 [16]: 2.3 µM (active)
- IC50 [17]: > 100 µM (inactive)

Compound: CCc1cccc(NC(=O)C[n+]2c3n(c4ccc(C(F)(F)F)cc42)CCCCC3)c1
- IC50 [18]: 5.22 µM (active)
- IC50 [19]: 2.69 µM (active)

Compound: Cc1ccc(NS(=O)(=O)c2ccc3[nH]c(=O)c(=O)[nH]c3c2)cc1Cl
- IC50 [1]: 41.9 µM (active)

Compound: COc1ccc(O)c(C(=O)CC(=O)c2ccc(F)cc2)c1
- EC50 [10]: > 50 µM (not active)
- EC50 [12]: 0.35 µM (active)
- CC50 [20]: > 40 µM (active)

Compound: CCN(CC)C(=O)c1ncn(C)c1C(=O)N(CC)CC
- IC50 [18]: 3.23 µM (active)
- IC50 [19]: 3.51 µM (active)

Compound: CCCc1cc(C(=O)Nc2nccs2)cs1
- EC50 [10]: > 50 µM (not active)
- IC50 [21]: > 100 µM (inactive)
- EC50 [22]: > 260 µM (inconclusive)
- EC50 [12]: < 0.2 µM (active)

Compound: COc1ccc(C(CC(=O)N2CCOCC2)c2c(OC)cc(OC)c3c(-c4ccccc4)cc(=O)oc23)cc1 (stereo not given)
- IC50 [18]: 50.9 µM (active)
- IC50 [19]: 17 µM (active)

Compound: COc1ccc(Cc2nnc(N3C(=O)c4ccccc4C3=O)[nH]2)cc1
- IC50 [5]: > 100 µM (inactive)
- IC50 [6]: > 100 µM (not active)

Compound: O=C(O)c1cc(S(=O)(=O)Nc2ccc3oc(=O)sc3c2)ccc1O
- IC50 [1]: 70.9 µM (active)
- IC50 [23]: 33.3 µM (active)

Compound: COc1ccccc1NC(=O)CN1CCC(n2nnc3cc(F)ccc32)CC1
- IC50 [2]: > 20 µM (inactive)
- IC50 [3]: 15.4 µM (active)
- IC50 [4]: 17.8 µM (active)
